# Where two headings read alike, the source gives them in different places. Residues, ends and D or L forms follow the SMILES beside them.
# Assays:
# [1] = tested on: Gram-negative bacteria (E. coli, A. baumannii, P. aeruginosa, S. typhimurium); assay type: cell-based
# Text: (§1) Four Gram-negative bacteria species (Escherichia coli KCTC 1682, Acinetobacter baumannii KCTC 2508, Pseudomonas aeruginosa KCTC 1637 and Salmonella typhimurium KCTC 1926) and three Gram-positive bacteria species (Staphylococcus aureus KCTC 1621, Bacillus subtilis KCTC 3028 and Staphylococcus epidermidis KCTC 1917) were procured from the Korean Collection for Type Cultures (KCTC). Multi-drug-resistant Gram-negative bacteria (Salmonella typhimurium CCARM 8003 and 8007, Escherichia coli CCARM 1229 and 1238, Pseudomonas aeruginosa CCARM 2002 and 2095 and Acinetobacter baumannii CCARM 12035 and 12036) were obtained from the Culture Collection of Antibiotic-Resistant Microbes (CCARM). To determine MICs, bacteria were cultured in Luria-Bertani (LB) medium for overnight at 37 °C. An aliquot of the culture was incubated in 1% peptone media at 37 °C until mid-log phase. 100 μl of serial 2-fold diluted peptides were treated in 96 well plates and added to 100 μl of 2 × 10^6 CFU/ml bacterial suspensions in 1% peptone media for 16 h at 37 °C.
# [2] = tested on: Salmonella typhimurium CCARM 8007 (MDRST 8007); assay type: cell-based; settings: multidrug-resistant strain; 1% peptone media, 16 h at 37 °C
# Text: as §1
# [3] = tested on: Staphylococcus epidermidis KCTC 1917; assay type: cell-based
# Text: as §1
# [4] = tested on: Escherichia coli CCARM 1229 (MDREC 1229); assay type: cell-based; settings: multidrug-resistant strain; 1% peptone media, 16 h at 37 °C
# Text: as §1
# [5] = tested on: Pseudomonas aeruginosa CCARM 2002 (MDRPA 2002); assay type: cell-based; settings: multidrug-resistant strain; 1% peptone media, 16 h at 37 °C
# Text: as §1
# [6] = tested on: Acinetobacter baumannii CCARM 12035 (MDRAB 12035); assay type: cell-based; settings: multidrug-resistant strain; 1% peptone media, 16 h at 37 °C
# Text: as §1
# [7] = tested on: Bacillus subtilis KCTC 3028; assay type: cell-based
# Text: as §1
# [8] = tested on: Pseudomonas aeruginosa KCTC 1637; assay type: cell-based
# Text: as §1
# [9] = tested on: Escherichia coli KCTC 1682; assay type: cell-based
# Text: as §1
# [10] = tested on: Acinetobacter baumannii KCTC 2508; assay type: cell-based
# Text: as §1
# [11] = tested on: Gram-positive bacteria (S. aureus, B. subtilis, S. epidermidis); assay type: cell-based
# Text: as §1
# [12] = tested on: Pseudomonas aeruginosa CCARM 2095 (MDRPA 2095); assay type: cell-based; settings: multidrug-resistant strain; 1% peptone media, 16 h at 37 °C
# Text: as §1
# [13] = tested on: Acinetobacter baumannii CCARM 12036 (MDRAB 12036); assay type: cell-based; settings: multidrug-resistant strain; 1% peptone media, 16 h at 37 °C
# Text: as §1
# [14] = tested on: Salmonella typhimurium KCTC 1926; assay type: cell-based
# Text: as §1
# [15] = tested on: Escherichia coli CCARM 1238 (MDREC 1238); assay type: cell-based; settings: multidrug-resistant strain; 1% peptone media, 16 h at 37 °C
# Text: as §1
# [16] = tested on: Salmonella typhimurium CCARM 8003 (MDRST 8003); assay type: cell-based; settings: multidrug-resistant strain; 1% peptone media, 16 h at 37 °C
# Text: as §1
# [17] = tested on: Staphylococcus aureus KCTC 1621; assay type: cell-based
# Text: as §1
# [18] = tested on: S. aureus 3126(R) (MRSA 3126); assay type: cell-based, Staphylococcus aureus; settings: multidrug-resistant strain; 1% peptone media, 16 h at 37 °C
# [19] = tested on: S. aureus 3108(R) (MRSA 3108); assay type: cell-based, Staphylococcus aureus; settings: multidrug-resistant strain; 1% peptone media, 16 h at 37 °C
# [20] = tested on: human red blood cells (hRBCs); assay: Haemolytic activity; assay type: cell-based; settings: red cells of human, 1 h
# Protocol: Peptide-induced lysis of human red blood cells (hRBCs) was determined as follows. Fresh hRBCs were washed 2–3 times with phosphate-buffered saline (PBS) by centrifugation for 5 min at 2500 rpm at 4 °C. Peptides in PBS were incubated with 4% (v/v) hRBCs for 1 h at 37 °C. Samples were then centrifuged for 5 min at 1000 × g. The absorbance of the supernatant at 405 nm was used as a measure of haemolysis. As a positive control, 100% haemolysis was obtained by treating hRBCs with 0.1% Triton X-100.
# [21] = tested on: S. aureus 3089(R) (MRSA 3089); assay type: cell-based, Staphylococcus aureus; settings: multidrug-resistant strain; 1% peptone media, 16 h at 37 °C
Structure (SMILES),"Average MIC, Gram-negative ([1]; 16 h) [µM]","MIC, MDRST 8007 [2] [µM]","MIC, S. epidermidis ([3]; KCTC 1917, 16 h) [µM]","MIC, MDREC 1229 [4] [µM]","MIC, MDRPA 2002 [5] [µM]","MIC, MDRAB 12035 [6] [µM]","MIC, B. subtilis ([7]; KCTC 3028, 16 h) [µM]","MIC, P. aeruginosa ([8]; KCTC 1637, 16 h) [µM]","MIC, E. coli ([9]; KCTC 1682, 16 h) [µM]","MIC, A. baumannii ([10]; KCTC 2508, 16 h) [µM]","Average MIC, Gram-positive ([11]; 16 h) [µM]","MIC, MDRPA 2095 [12] [µM]","MIC, MDRAB 12036 [13] [µM]","MIC, S. typhimurium ([14]; KCTC 1926, 16 h) [µM]","MIC, MDREC 1238 [15] [µM]","MIC, MDRST 8003 [16] [µM]","MIC, S. aureus ([17]; KCTC 1621, 16 h) [µM]","MIC, MRSA 3126 [18] [µM]","MIC, MRSA 3108 [19] [µM]","MIC, MRSA 3089 [21] [µM]",also measured
CC[C@H](C)[C@H](NC(=O)CNC(=O)[C@H](CCC(N)=O)NC(=O)[C@H](Cc1ccccc1)NC(=O)[C@@H](NC(=O)[C@H](CCCCN)NC(=O)[C@H](CCCCN)NC(=O)[C@H](CC(C)C)NC(=O)[C@H](C)NC(=O)[C@H](CC(N)=O)NC(=O)[C@H](CC(C)C)NC(=O)CN)C(C)C)C(=O)N[C@@H](Cc1c[nH]cn1)C(=O)N[C@@H](CCCCN)C(=O)N[C@@H](C)C(=O)N[C@H](C(=O)N[C@@H](CCCCN)C(=O)N[C@@H](CCCCN)C(=O)N[C@H](C(=O)N[C@@H](CC(N)=O)C(=O)N[C@@H](CC(N)=O)C(=O)N[C@@H](Cc1c[nH]cn1)C(=O)N[C@H](C(=O)N[C@@H](CCC(N)=O)C(=O)O)C(C)C)[C@@H](C)CC)[C@@H](C)CC [Ps-K14-K18] (H-GLNALKKVFQGIHKAIKKINNHVQ-OH),1.75,4,16,2,2,2,8,2,1,2,10.67,4,2,2,2,4,8,4,4,8,MHC (minimal peptide concentration that produces haemolysis) [20]: 100 µM; haemolysis at 100 μM [20]; 100: 1.1%
CC[C@H](C)[C@H](NC(=O)[C@H](C)NC(=O)[C@H](CCC(=O)O)NC(=O)[C@H](Cc1c[nH]cn1)NC(=O)[C@@H](NC(=O)[C@@H]1CCCN1C(=O)[C@H](CCC(N)=O)NC(=O)[C@H](Cc1ccccc1)NC(=O)[C@@H](NC(=O)[C@H](CCCCN)NC(=O)[C@H](CCCCN)NC(=O)[C@H](CC(C)C)NC(=O)[C@H](C)NC(=O)[C@H](CC(N)=O)NC(=O)[C@H](CC(C)C)NC(=O)CN)C(C)C)[C@@H](C)CC)C(=O)N[C@@H](CCCCN)C(=O)N[C@@H](CC(C)C)C(=O)N[C@H](C(=O)N[C@@H](CC(N)=O)C(=O)N[C@@H](CC(N)=O)C(=O)N[C@@H](Cc1c[nH]cn1)C(=O)N[C@H](C(=O)N[C@@H](CCC(N)=O)C(=O)O)C(C)C)[C@@H](C)CC [Ps-P] (H-GLNALKKVFQPIHEAIKLINNHVQ-OH),10,8,32,8,16,8,32,16,8,8,32,16,8,8,8,16,32,32,32,32,MHC (minimal peptide concentration that produces haemolysis) [20]: 400 µM; haemolysis at 400 μM [20]; 400: 0.5%
"CC[C@H](C)[C@H](NC(=O)CN)C(=O)NCC(=O)N[C@@H](C)C(=O)N[C@H](C(=O)N[C@@H](CC(C)C)C(=O)N[C@@H](CCCCN)C(=O)N[C@H](C(=O)N[C@@H](CC(C)C)C(=O)N[C@H](C(=O)N[C@H](C(=O)NCC(=O)N[C@@H](CC(C)C)C(=O)N1CCC[C@H]1C(=O)N[C@@H](C)C(=O)N[C@@H](CC(C)C)C(=O)N[C@H](C(=O)N[C@@H](CO)C(=O)N[C@@H](Cc1c[nH]c2ccccc12)C(=O)N[C@H](C(=O)N[C@@H](CCCCN)C(=O)N[C@@H](CCCNC(=N)N)C(=O)N[C@@H](CCCCN)C(=O)N[C@@H](CCCNC(=N)N)C(=O)N[C@@H](CCC(N)=O)C(=O)N[C@@H](CCC(N)=O)C(N)=O)[C@@H](C)CC)[C@@H](C)CC)[C@@H](C)O)[C@@H](C)O)C(C)C)C(C)C [Melittin, reference compound]",–,8,–,4,2,4,–,–,–,–,–,2,4,–,4,8,–,2,2,2,"Average MIC, Gram-negative ([1]; average over the four Gram-negative standard strains): 5 µM; MIC, S. epidermidis ([3]; standard strain KCTC 1917, 1% peptone media, 16 h at 37 °C, three independent experiments in triplicate, SD 14.0%): 2 µM; MIC, B. subtilis ([7]; standard strain KCTC 3028, 1% peptone media, 16 h at 37 °C, three independent experiments in triplicate, SD 14.0%): 4 µM; MIC, P. aeruginosa ([8]; standard strain KCTC 1637, 1% peptone media, 16 h at 37 °C, three independent experiments in triplicate, SD 14.0%): 4 µM; MIC, E. coli ([9]; standard strain KCTC 1682, 2-fold dilutions, 1% peptone media, 2 × 10^6 CFU/ml suspension, 16 h at 37 °C, three independent experiments in triplicate, SD 14.0%): 4 µM; MIC, A. baumannii ([10]; standard strain KCTC 2508, 1% peptone media, 16 h at 37 °C, three independent experiments in triplicate, SD 14.0%): 4 µM; Average MIC, Gram-positive ([11]; average over the three Gram-positive standard strains): 3.33 µM; MIC, S. typhimurium ([14]; standard strain KCTC 1926, 1% peptone media, 16 h at 37 °C, three independent experiments in triplicate, SD 14.0%): 8 µM; MIC, S. aureus ([17]; standard strain KCTC 1621, 1% peptone media, 16 h at 37 °C, three independent experiments in triplicate, SD 14.0%): 4 µM"
